Laboratory results reported in patent US10745384B2, “Indazole derivatives as αv integrin antagonists” (BRISTOL-MYERS SQUIBB COMPANY, priority 2016, dated 2020).
Structures can show the parent of a compound that is named as a salt.

Target: T1, human αVβ6 (Homo sapiens, UniProt P06756+P18564)
T1 construct: purchased R & D systems 3817-AV
Test: human αVβ6 HTRF binding assay
Conditions: recombinant human αVβ6 integrin, FITC-conjugated fibronectin
Protocol: All binding assays used the HTRF (homogeneous time resolved fluorescence) technology from Cisbio International, therefore all assays are described as HTRF binding assays. The assay results for the Examples are listed above together with the characterization data. The HTRF binding assays are established for the following integrins: human αVβ6, human αVβ1, human αVβ3, human αVβ5, and human αVβ8. All assays used the following assay buffer: 20 mM Tris, pH 7.4, 1 mM MgCl2, 1 mM MnCl2, 0.01% Tween 20, and 0.01% BSA. Alternatively, a SPA-based assay was used for evaluation of receptor binding.
The following describes the components and a representative procedure for the human αVβ6 HTRF binding assay: Recombinant human αVβ6 Integrin (R & D systems, 3817-AV) was biotinylated. Biotinylated human αVβ6 Integrin was added to assay vessel at a final concentration of 1.25 nM. FITC-conjugated fibronectin (Cytoskeleton, FNR02) was then added at the final concentration of 5 nM. The mixture was centrifuged at 600 rpm for three minutes using Thermo Fisher Heraeus Multifuge X3 centrifuge and then incubated at room temperature for an hour. Streptavidin Terbium (Cisbio international 610STLB) was then added at the final concentration of 0.625 nM. The resulting mixture was centrifuged at 600 rpm for three minutes using Thermo Fisher Heraeus Multifuge X3 centrifuge and then incubated at room temperature overnight in dark before reading HTRF signals. […]

T1 sequence (P06756 31-992 limits assumed): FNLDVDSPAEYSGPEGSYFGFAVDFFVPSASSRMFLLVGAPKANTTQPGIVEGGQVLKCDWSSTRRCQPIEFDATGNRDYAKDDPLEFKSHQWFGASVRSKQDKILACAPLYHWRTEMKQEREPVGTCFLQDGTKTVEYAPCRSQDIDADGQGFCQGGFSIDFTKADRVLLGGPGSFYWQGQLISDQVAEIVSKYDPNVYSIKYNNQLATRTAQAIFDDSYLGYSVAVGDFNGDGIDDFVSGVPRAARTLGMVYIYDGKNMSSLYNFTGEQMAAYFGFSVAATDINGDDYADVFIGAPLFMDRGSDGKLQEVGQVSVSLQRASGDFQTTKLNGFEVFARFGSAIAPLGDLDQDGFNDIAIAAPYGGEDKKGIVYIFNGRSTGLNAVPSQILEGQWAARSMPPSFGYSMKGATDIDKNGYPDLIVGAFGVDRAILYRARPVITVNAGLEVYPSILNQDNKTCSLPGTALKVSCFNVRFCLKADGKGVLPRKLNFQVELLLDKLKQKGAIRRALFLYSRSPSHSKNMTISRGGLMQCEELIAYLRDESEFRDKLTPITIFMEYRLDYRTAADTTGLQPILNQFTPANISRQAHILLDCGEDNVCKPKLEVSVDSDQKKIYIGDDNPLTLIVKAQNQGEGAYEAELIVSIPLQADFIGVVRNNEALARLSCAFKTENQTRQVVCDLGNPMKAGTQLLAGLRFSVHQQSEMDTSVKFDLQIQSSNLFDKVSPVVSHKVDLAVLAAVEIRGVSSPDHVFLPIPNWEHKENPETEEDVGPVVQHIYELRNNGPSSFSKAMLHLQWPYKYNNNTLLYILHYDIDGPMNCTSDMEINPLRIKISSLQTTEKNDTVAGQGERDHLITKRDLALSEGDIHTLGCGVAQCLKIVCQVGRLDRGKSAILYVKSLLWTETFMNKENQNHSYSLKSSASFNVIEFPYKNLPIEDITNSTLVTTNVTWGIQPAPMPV
T1 sequence (P18564 22-707 limits assumed): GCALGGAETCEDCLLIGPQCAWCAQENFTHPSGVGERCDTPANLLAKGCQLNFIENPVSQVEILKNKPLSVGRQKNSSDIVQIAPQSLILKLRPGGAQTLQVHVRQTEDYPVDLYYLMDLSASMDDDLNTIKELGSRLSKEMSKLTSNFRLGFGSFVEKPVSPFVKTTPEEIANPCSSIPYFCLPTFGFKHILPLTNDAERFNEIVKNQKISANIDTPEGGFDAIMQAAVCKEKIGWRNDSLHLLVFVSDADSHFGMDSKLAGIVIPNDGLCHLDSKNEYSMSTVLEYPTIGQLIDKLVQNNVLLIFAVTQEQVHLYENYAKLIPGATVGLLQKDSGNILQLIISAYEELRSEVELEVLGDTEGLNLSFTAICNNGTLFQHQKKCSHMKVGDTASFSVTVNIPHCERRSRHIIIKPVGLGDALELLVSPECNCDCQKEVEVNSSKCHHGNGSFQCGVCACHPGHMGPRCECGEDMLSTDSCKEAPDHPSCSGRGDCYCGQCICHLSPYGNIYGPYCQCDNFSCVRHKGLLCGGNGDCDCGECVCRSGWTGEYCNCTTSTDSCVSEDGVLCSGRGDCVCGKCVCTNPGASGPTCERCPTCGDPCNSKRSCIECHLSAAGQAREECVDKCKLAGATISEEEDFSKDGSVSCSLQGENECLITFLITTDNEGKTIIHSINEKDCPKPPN

SMILES | IC50 [µM]
O=C(O)CC(c1cccc(N2CCOCC2)c1)n1ncc2cc(OCCc3ccc4c(n3)NCCC4)ccc21 (stereo not drawn) [Example 58, 3-(3-Morpholinophenyl)-3-(5-(2-(5,6,7,8-tetrahydro-1,8-naphthyridin-2-yl)ethoxy)-1H-indazol-1-yl)propanoic acid, TFA] | 0.0017
O=C(O)CC(c1cccc(-n2cccc2)c1)n1ncc2cc(OCCc3ccc4c(n3)NCCC4)ccc21 (stereo not drawn) [Example 59, 3-(3-(1H-Pyrrol-1-yl)phenyl)-3-(5-(2-(5,6,7,8-tetrahydro-1,8-naphthyridin-2-yl)ethoxy)-1H-indazol-1-yl)propanoic acid, TFA] | 0.0012
CN(C)Cc1cccc(C(CC(=O)O)n2ncc3cc(OCCc4ccc5c(n4)NCCC5)ccc32)c1 (stereo not drawn) [Example 60, 3-(3-((Dimethylamino)methyl)phenyl)-3-(5-(2-(5,6,7,8-tetrahydro-1,8-naphthyridin-2-yl)ethoxy)-1H-indazol-1-yl)propanoic acid, TFA] | 0.0051
O=C(O)CC(c1ccccn1)n1ncc2cc(OCCc3ccc4c(n3)NCCC4)ccc21 (stereo not drawn) [Example 61, 3-(Pyridin-2-yl)-3-(5-(2-(5,6,7,8-tetrahydro-1,8-naphthyridin-2-yl)ethoxy)-1H-indazol-1-yl)propanoic acid, TFA] | 0.08
O=C(O)CC(c1cccc(N2CCCC2=O)c1)n1ncc2cc(OCCc3ccc4c(n3)NCCC4)ccc21 (stereo not drawn) [Example 62, 3-(3-(2-Oxopyrrolidin-1-yl)phenyl)-3-(5-(2-(5,6,7,8-tetrahydro-1,8-naphthyridin-2-yl)ethoxy)-1H-indazol-1-yl)propanoic acid, TFA] | 0.037
CCCn1cc(C(CC(=O)O)n2ncc3cc(OCCc4ccc5c(n4)NCCC5)ccc32)cn1 (stereo not drawn) [Example 63, 3-(1-Propylpyrazol-4-yl)-3-(5-(2-(5,6,7,8-tetrahydro-1,8-naphthyridin-2-yl)ethoxy)-1H-indazol-1-yl)propanoic acid, TFA] | 0.055
COc1ccc([C@H](CC(=O)O)n2cc3cc(CCc4ccc5c(n4)NCCC5)ccc3n2)cn1 [Example 64, (S)-3-(6-Methoxypyridin-3-yl)-3-(5-(2-(5,6,7,8-tetrahydro-1,8-naphthyridin-2-yl)ethyl)-2H-indazol-2-yl)propanoic acid] | 0.019
COc1ccc([C@H](CC(=O)O)n2cc3cc(CCCc4ccc5c(n4)NCCC5)ccc3n2)cn1 [Example 67, (S)-3-(6-Methoxypyridin-3-yl)-3-(5-(3-(5,6,7,8-tetrahydro-1,8-naphthyridin-2-yl)propyl)-2H-indazol-2-yl)propanoic acid] | 0.74
Cc1cc(C)n(-c2cccc(C(CC(=O)O)n3ncc4cc(OCCc5ccc6c(n5)NCCC6)ccc43)c2)n1 (stereo not drawn) [Example 68, 3-(3-(3,5-Dimethylpyrazol-1-yl)phenyl)-3-(5-(2-(5,6,7,8-tetrahydro-1,8-naphthyridin-2-yl)ethoxy)-1H-indazol-1-yl)propanoic acid, TFA] | 0.0015
O=C(O)CC(Cc1ccc(OCc2ccccc2)cc1)n1ncc2cc(OCCc3ccc4c(n3)NCCC4)ccc21 (stereo not drawn) [Example 69, 4-(4-(Benzyloxy)phenyl)-3-(5-(2-(5,6,7,8-tetrahydro-1,8-naphthyridin-2-yl)ethoxy)-1H-indazol-1-yl)butanoic acid, TFA] | 0.4
COc1ccc(C(CC(=O)O)n2nc(C)c3cc(OCCc4ccc5c(n4)NCCC5)ccc32)cn1 (stereo not drawn) [Example 70, 3-(6-Methoxypyridin-3-yl)-3-(3-methyl-5-(2-(5,6,7,8-tetrahydro-1,8-naphthyridin-2-yl)ethoxy)-1H-indazol-1-yl)propanoic acid] | 0.953
Cn1ccc(C(CC(=O)O)n2ncc3cc(OCCc4ccc5c(n4)NCCC5)ccc32)cc1=O (stereo not drawn) [Example 71, 3-(1-Methyl-2-oxo-1,2-dihydropyridin-4-yl)-3-(5-(2-(5,6,7,8-tetrahydro-1,8-naphthyridin-2-yl)ethoxy)-1H-indazol-1-yl)propanoic acid, TFA] | 0.064
